Key:
α7 nAChR = molecular target: T1, α7 nAChR (Mus musculus, UniProt P49582); experiment: Memantine effect on E. coli K1 (E44)-induced cAstr/cBMEC shedding in neonatal mice; format: in vivo; conditions: neonatal (10 day-old) mice intraperitoneally injected with E44 and treated with MEM, P<0.001
T1 construct: endogenous in cells; host or cells: live neonatal (10 day-old) mice, in vivo; C57BL/6J is the strain stated for the animal experiments in general
From the text: (§1) Then the suspensions were collected and centrifuged.
As α7 nAChR plays an important role in CNS Inflammation induced by microbial and non-microbial factors, we have proposed that turnover and shedding of astrocytes and BMECs could be regulated by α7 nAChR. To test this hypothesis, the correlation of α7 nAChR with cAstr/cBMEC shedding and CNS inflammation induced by meningitic E. coli K1 (E44) was examined an α7 nAChR antagonist memantine (MEM) described in the experimental methods herein. In this study, neonatal (10 day-old) mice were intraperitoneally injected with E44 and treated with MEM.

cAstr and cBMECs = experiment: cAstr and cBMEC density in peripheral blood of mice treated with gp120 and METH; format: in vivo, mouse; conditions: vs controls without treatment (CON)
From the text: as §1

BBB = experiment: Blood cell biomarkers, serum markers and BBB extravasation in mice treated with nicotine, METH and gp120; conditions: for Evans blue and albumin extravasation into the brain / blood levels of CD133+/CD146+ endothelial PCs (EPCs) / blood levels of circulating Astrocytes (cAstr) / blood levels of circulating BMECs (cBMECs), CD146+/S100B+: treated mice
Protocol: Nicotine tartrate (NT) and methamphetamine (METH) were purchased from Sigma-Aldrich (St. Louis, Mo.). Dynabeads® M-450 Tosylactivated was obtained from Invitrogen (Carlsbad, Calif.) and utilized for magnetic bead extraction. Ulexeuropaeus 1 (UEA I) lectin and mounting medium with 4′,6-diamidino-2-phenylindole (DAPI) were purchased from Vector (Buringame, Calif.). HIV-1 gp120 was purchased from Immunodiagnostics (Woburn, Mass.). Serum levels of molecular markers were determined by ELISA using antibodies and antigens from Creative Biomart (New York, N.Y.) (S100B) and ProteinTech (Chicago, Ill.) (ubiquitin C-terminal hydrolase 1, UCHL1). The Mfsd 2a antibody was purchased from Santa Cruz Biotechnology, Inc. (Dallas, TEXAS). All primary antibodies (Ab) were purchased from the commercial sources: a rabbit anti-α7 nAChR Ab from Genescript (Piscataway, N.J.); a rat anti-mouse Ly-6G (Gr-I) Ab; a mouse anti-CD44 Ab (sc-7297), a rabbit anti-actin (sc-7210), and a rabbit anti-GLUT1 Ab from Santa Cruz Biotechnology (Santa Cruz, Calif.); a rat anti-mouse Ly-6G (Gr-I) Ab FITC-conjugated and an anti-mouse CD146 Ab FITC-conjugated from eBiosciences (San Diego, Calif.), a rabbit anti-SIOOB Ab rhodamine-conjugated from BD Biosciences, and a rabbit anti-CD133 Ab rhodamine-conjugated from Abbiotec (San Diego, Calif.). Transwell filters (3 μm pore size, 6.5 mm diameter), blood plates and CBA assay kit were purchased from BD Biosciences (San Jose, Calif.). Chemicals were purchased from Sigma-Aldrich (St. Louis, Mo.) unless otherwise noted.
Mouse cBMECs were isolated with UIexeuropaeus 1 (UEA 1) lectin-coated Dynabeads as known by one of ordinary skill in the art. The beads were prepared according to the manufacturer's instructions (Invitrogen) and re-suspended in Hanks' balanced salt solution (HBSS. Invitrogen Corp., Carlsbad, Calif., USA) plus 5% fetal calf serum (HBSS+5% FCS) to a final concentration of 4×10^8 beads/mi. Mouse cBMECs in whole blood were affinity captured at 4TC with UEA UEA-1 coated Dynabeads. To eliminate non-specific cell binding to the beads, the cell suspensions were flushed through the pipette tip during the washing steps and then suspended in PBS by using a magnetic particle concentrator (MPC). The bound cells were incubated with 0.5M fucose for 10 min at room temperature to release the beads from target cells. The beads were then washed 5 times with HBSS+5% FBS and collected with the MPC. Then the suspensions were collected and centrifuged. The pellet was collected and affinity captured at 4-C with Msd2a-precoated Dynabeads. After blocking and washing, the cells conjugated to the beads were fixed with 2% paraformaldehyde and 0.25% glutaradehyde for 30 minutes. Then the FITC-conjugated CD146 antibody (BMECs specific marker, used for cBMEC identification) was added and incubated with the beads-bound cells overnight (dark). At last, DAPI was added and incubated with the beads-bound cells for 30 min. The cells (10 ul) were transferred to the cell counter, and counted under a florescence microscope.
Mouse astrocytes were isolated with Concanavalin A (ConA)-coated magnetic beads as known by one of ordinary skill in the art. Dynabeads™ beads were prepared according to the manufacturer's instructions (Invitrogen) and re-suspended in Hanks' balanced salt solution (HBSS, Invitrogen Corp., Carlsbad, Calif., USA) plus 5% fetal calf serum (HBSS+5% FCS) to a final concentration of 4×10^8 beads/ml. Mouse astrocytes in whole blood were affinity captured at 4° C. with ConA coated Dynabeads™. To eliminate non-specific cell binding to the beads, the cell suspensions were flushed through the pipette tip during the washing steps and then suspended in PBS by using a magnetic particle concentrator (MPC). The bound cells were incubated with 0.5M fucose for 10 min at room temperature to release the beads from target cells. The beads were then washed 5 times with HBSS+5% FBS and collected with the MPC. Then the suspensions were collected and centrifuged. […]

T1 sequence (P49582 23-502): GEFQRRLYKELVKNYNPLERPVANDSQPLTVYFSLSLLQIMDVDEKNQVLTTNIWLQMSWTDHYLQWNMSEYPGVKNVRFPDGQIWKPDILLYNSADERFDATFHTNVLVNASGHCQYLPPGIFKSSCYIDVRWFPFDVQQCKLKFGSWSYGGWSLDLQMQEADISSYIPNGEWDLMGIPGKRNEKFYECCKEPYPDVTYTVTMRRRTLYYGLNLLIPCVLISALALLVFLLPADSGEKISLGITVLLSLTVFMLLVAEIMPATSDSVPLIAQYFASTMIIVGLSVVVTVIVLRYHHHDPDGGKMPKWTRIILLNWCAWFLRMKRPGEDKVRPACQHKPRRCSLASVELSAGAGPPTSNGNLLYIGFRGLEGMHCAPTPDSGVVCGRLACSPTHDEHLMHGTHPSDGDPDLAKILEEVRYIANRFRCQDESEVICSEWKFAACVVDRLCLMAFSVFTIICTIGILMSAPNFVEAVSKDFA

Structure (SMILES) | shedding of cAstr (blood level) (α7 nAChR) | shedding of cBMECs (blood level) (α7 nAChR) | shedding of cAstr (blood level) (α7 nAChR; listed as memantine) | shedding of cBMECs (blood level) (α7 nAChR; listed as memantine) | Astr (cAstr) shedding (cAstr and cBMECs; FIG. 6A) | cBMEC shedding (cAstr and cBMECs; FIG. 6B) | Evans blue and albumin extravasation into the brain (BBB) | blood levels of CD133+/CD146+ endothelial PCs (EPCs) (BBB) | blood levels of circulating Astrocytes (cAstr) (BBB) | blood levels of circulating BMECs (cBMECs), CD146+/S100B+ (BBB) | serum levels of S100B (BBB; mice, ELISA) | serum levels of ubiquitin C-terminal hydrolase 1 (BBB; mice, ELISA)
CC12CC3CC(C)(C1)CC(N)(C3)C2 [MEM, memantine] | significantly block | significantly block | reduce | reduce |  |  |  |  |  |  |  | 
CN[C@@H](C)Cc1ccccc1 [METH, methamphetamine] |  |  |  |  | significantly induce | significantly induce | enhanced | increased blood levels | increased blood levels | increased blood levels |  | 
CN1CCCC1c1cccnc1.O=C(O)C(O)C(O)C(=O)O (stereo not shown) [nicotine, Nicotine tartrate] |  |  |  |  |  |  | enhanced | increased blood levels | increased blood levels | increased blood levels | significantly increase | significantly increase
